Measured values published in patent US20030040540A1, “Bromonitrothienyldioxanes” (priority 2001, published 2003).
In brackets after ≈: the same amount, converted by molar mass.

Experiments:
Chaetomium globusum = experiment: MIC against fungi on malt extract agar (Use Example B); format: cell-based; details: 2 weeks at 28° C., 60 to 70% relative atmospheric humidity, no colonization whatsoever; for MIC: Chaetomium, 336 h, read-out: Minimum inhibitory concentrations Chaetomium globusum
Protocol: (§1) The MIC was determined after 2 weeks of storage at 28° C. and 60 to 70% relative atmospheric humidity.

Aspergillus niger = experiment: as above; format: cell-based; details: 2 weeks at 28° C., 60 to 70% relative atmospheric humidity, no colonization whatsoever; for MIC: Aspergillus niger, 336 h, read-out: Minimum inhibitory concentrations Aspergillus niger
Protocol: as §1

Penicillium brevicaule = experiment: as above; format: cell-based; details: 2 weeks at 28° C., 60 to 70% relative atmospheric humidity, no colonization whatsoever; for MIC: Penicillium, 336 h, read-out: Minimum inhibitory concentrations Penicillium brevicaule
Protocol: as §1

Pseudomonas aeroginosa = experiment: MIC against bacteria on Landy agar (Use Example A); format: cell-based; details: 3 days at 28° C., 60 to 70% relative atmospheric humidity, no colonization whatsoever; for MIC: Pseudomonas, 72 h, read-out: Minimum inhibitory concentrations Pseudomonas aeroginosa
Protocol: (§2) The MIC was determined after 3 days of storage at 28° C. and 60 to 70% relative atmospheric humidity.

Bacillus subtilis = experiment: MIC against bacteria on Landy agar (Use Example A); format: cell-based; details: 3 days at 28° C., 60 to 70% relative atmospheric humidity, no colonization whatsoever; for MIC: Bacillus subtilis, 72 h, read-out: Minimum inhibitory concentrations Bacillus subtilis
Protocol: as §2

SMILES | Minimum inhibitory concentrations Chaetomium globusum (Chaetomium globusum) [ppm] | Minimum inhibitory concentrations Aspergillus niger (Aspergillus niger) [ppm] | Minimum inhibitory concentrations Penicillium brevicaule (Penicillium brevicaule) [ppm] | MIC (Chaetomium globusum) [µg/mL] | MIC (Aspergillus niger) [µg/mL] | MIC (Penicillium brevicaule) [µg/mL] | MIC (Pseudomonas aeroginosa) [µg/mL] | MIC (Bacillus subtilis) [µg/mL] | melting point [°C] | Minimum inhibitory concentrations Pseudomonas aeroginosa (Pseudomonas aeroginosa) [ppm] | Minimum inhibitory concentrations Bacillus subtilis (Bacillus subtilis) [ppm]
O=[N+]([O-])c1sc(C2OCC(Br)([N+](=O)[O-])CO2)cc1Br (stereo not shown) [Example 8] | 400 | >400 | 200 |  |  |  |  |  |  |  | 
O=[N+]([O-])C1(Br)COC(c2cccs2)OC1 (stereo not shown) [Example 1, 5-bromo-5-nitro-2-(2-thienyl)-1,3-dioxane] |  |  |  | 100 (≈ 340 µM) | 200 (≈ 680 µM) | < 40 | 100 (≈ 340 µM) | < 40 |  |  | 
O=[N+]([O-])C1(Br)COCOC1 [5-bromo-5-nitro-1,3-dioxane, reference compound] |  |  |  | 500 (≈ 2360 µM) | 1000 (≈ 4720 µM) |  | 750 (≈ 3540 µM) |  |  |  | 
O=[N+]([O-])C1(Br)COC(c2ccc(Cl)s2)OC1 (stereo not shown) [Example 2, 5-bromo-2-(5-chloro-2-thienyl)-5-nitro-1,3-dioxane] |  |  |  | < 40 | 100 (≈ 304 µM) | < 40 | 100 (≈ 304 µM) | < 40 | 55 to 57 |  | 
Cc1ccc(C2OCC(Br)([N+](=O)[O-])CO2)s1 (stereo not shown) [Example 4] | 100 | 200 | <40 |  |  |  |  |  |  |  | 
O=[N+]([O-])c1ccc(C2OCC(Br)([N+](=O)[O-])CO2)s1 (stereo not shown) [Example 7] | 100 | 200 | <40 |  |  |  |  |  |  | 200 | <40
Cc1ccsc1C1OCC(Br)([N+](=O)[O-])CO1 (stereo not shown) [Example 5] | <40 | 200 | <40 |  |  |  |  |  |  |  | 
O=[N+]([O-])C1(Br)COC(c2ccc(Br)s2)OC1 (stereo not shown) [Example 3] | 100 | 200 | <40 |  |  |  |  |  |  |  | 
